# Biological target: integrin αIIbβ3 (Homo sapiens, UniProt P05106+P08514)
# Assay type: binding
# Sequence of integrin αIIbβ3 (P08514 32-887): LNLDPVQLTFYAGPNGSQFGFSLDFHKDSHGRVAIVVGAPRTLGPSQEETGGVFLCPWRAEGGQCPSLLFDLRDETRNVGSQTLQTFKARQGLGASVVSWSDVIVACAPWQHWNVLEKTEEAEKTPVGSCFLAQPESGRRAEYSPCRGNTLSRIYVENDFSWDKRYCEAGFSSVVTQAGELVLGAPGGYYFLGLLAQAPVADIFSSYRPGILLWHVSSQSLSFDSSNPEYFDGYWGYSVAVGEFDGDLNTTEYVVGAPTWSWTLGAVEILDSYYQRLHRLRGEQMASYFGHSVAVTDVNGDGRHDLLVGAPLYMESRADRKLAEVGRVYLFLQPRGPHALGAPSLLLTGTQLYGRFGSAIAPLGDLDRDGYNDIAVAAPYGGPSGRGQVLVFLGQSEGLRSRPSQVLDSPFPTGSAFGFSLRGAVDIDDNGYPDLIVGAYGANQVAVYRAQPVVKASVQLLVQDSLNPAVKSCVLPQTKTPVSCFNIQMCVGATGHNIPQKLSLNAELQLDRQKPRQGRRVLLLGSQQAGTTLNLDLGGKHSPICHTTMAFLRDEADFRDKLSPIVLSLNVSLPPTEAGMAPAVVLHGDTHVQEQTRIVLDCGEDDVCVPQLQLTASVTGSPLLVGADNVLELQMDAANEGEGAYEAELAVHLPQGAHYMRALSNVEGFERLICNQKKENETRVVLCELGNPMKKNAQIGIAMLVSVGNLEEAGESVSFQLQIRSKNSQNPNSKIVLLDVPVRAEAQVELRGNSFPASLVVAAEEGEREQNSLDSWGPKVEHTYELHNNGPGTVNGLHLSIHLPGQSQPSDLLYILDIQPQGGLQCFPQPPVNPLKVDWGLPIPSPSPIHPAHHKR
# Sequence of integrin αIIbβ3 (P08514 891-1039): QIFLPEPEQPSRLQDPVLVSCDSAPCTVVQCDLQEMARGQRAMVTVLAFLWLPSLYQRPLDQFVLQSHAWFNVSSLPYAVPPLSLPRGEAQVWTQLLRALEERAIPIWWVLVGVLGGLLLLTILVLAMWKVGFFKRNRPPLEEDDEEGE
# Sequence of integrin αIIbβ3 (P05106 27-788): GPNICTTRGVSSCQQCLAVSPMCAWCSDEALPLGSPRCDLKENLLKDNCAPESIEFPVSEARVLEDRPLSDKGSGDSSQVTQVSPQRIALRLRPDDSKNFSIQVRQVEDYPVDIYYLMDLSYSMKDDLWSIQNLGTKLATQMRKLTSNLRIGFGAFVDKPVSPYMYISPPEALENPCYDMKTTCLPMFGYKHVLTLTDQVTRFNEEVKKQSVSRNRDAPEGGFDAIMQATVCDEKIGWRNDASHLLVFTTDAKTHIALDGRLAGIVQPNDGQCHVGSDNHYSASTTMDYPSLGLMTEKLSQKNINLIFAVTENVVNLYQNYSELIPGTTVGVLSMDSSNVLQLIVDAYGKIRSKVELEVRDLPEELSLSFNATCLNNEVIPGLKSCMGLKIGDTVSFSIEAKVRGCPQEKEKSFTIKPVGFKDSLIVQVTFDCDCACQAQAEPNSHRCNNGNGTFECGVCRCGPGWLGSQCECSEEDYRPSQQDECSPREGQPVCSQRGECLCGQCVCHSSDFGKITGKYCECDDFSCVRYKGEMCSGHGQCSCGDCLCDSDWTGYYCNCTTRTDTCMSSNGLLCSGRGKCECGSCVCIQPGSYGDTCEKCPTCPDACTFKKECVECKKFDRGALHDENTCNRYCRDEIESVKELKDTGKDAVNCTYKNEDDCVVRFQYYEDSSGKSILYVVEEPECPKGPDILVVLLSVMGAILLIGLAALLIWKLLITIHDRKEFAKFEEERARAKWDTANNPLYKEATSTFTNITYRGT
structure (smiles),measurement,value
"CCCC(=O)NC(Cc1ccc2cc(OCc3ccc(C(=N)N)cc3)ccc2c1)C(=O)O (stereo not shown) [ND-1, 2-butyramido-3-(6-((4-carbamimidoylbenzyl)oxy)naphthalen-2-yl)propanoic acid]",IC50,3.12 µM

# From publication PMC5206433 (BioMed Research International, 2016)
